Source: patent EP0114128A1, “3-Amino-2-oxo-azetidine derivatives containing in position 1 a nitrogen heterocyclic radical, process for their preparation, their use as therapeutical agents and intermediates for their preparation” (priority 1983, dated 1984)
Values after ≈ are worked out from the molar mass of the structure shown. Read-outs that look alike come from different tables or passages of the source.

Tests used:
Assay in all cases: In vitro activity, dilution method in liquid medium (MIC)
Format in all cases: cell-based
Providencia DU 48 = settings: read-out: concentrations minimales inhibitrices (C. M. I.)
Description: (§1) Etude pharmacologiaue des produits de l'invention. Activité in vitro, méthode des dilutions en milieu liquide.
(§2) On prépare une série de tubes dans lesquels on répartit une même quantité de milieu nutritif stérile. On distribue dans chaque tube des quantités croissantes du produit à étudier, puis chaque tube est ensemencé avec une souche bactérienne. Après incubation de vingt-quatre ou quarante-huit heures à l'étuve à 37°C, l'inhibition de la croissance est appréciée par transillumination ce qui permet de déterminer les concentrations minimales inhibitrices (C. M. I.) exprimées en µg/cm3.

Escherichia Coli DC2 = settings: read-out: concentrations minimales inhibitrices (C. M. I.)
Description: as §1, §2

Escherichia Coli DC0 = settings: read-out: concentrations minimales inhibitrices (C. M. I.)
Description: as §1, §2

Proteus vulgaris A 232 = settings: read-out: concentrations minimales inhibitrices (C. M. I.)
Description: as §1, §2

Escherichia Coli 1894 = settings: read-out: concentrations minimales inhibitrices (C. M. I.)
Description: as §1, §2

Escherichia Coli 1507 E = settings: COLI1507E, read-out: concentrations minimales inhibitrices (C. M. I.)
Description: as §1, §2

Serratia marcesceus 2532 = settings: read-out: concentrations minimales inhibitrices (C. M. I.)
Description: as §1, §2

Escherichia Coli TEM = settings: read-out: concentrations minimales inhibitrices (C. M. I.)
Description: as §1, §2

[1] = test system: Klebsiella Aeruginosa 1522 E; settings: read-out: concentrations minimales inhibitrices (C. M. I.)
Description: as §1, §2

Escherichia Coli 078 = settings: read-out: concentrations minimales inhibitrices (C. M. I.)
Description: as §1, §2

Proteus mirabilis A 235 = settings: read-out: concentrations minimales inhibitrices (C. M. I.)
Description: as §1, §2

[2] = test system: Klebsiella pneumonae 52145; settings: read-out: concentrations minimales inhibitrices (C. M. I.)
Description: as §1, §2

[3] = test system: Enterobacter cloacae 1321 E; settings: read-out: concentrations minimales inhibitrices (C. M. I.)
Description: as §1, §2

[4] = test system: Salmonella typhimurium MZ 11; settings: Salmonella enterica, read-out: concentrations minimales inhibitrices (C. M. I.)
Description: as §1, §2

[5] = test system: Pseudomonas aeruginosa 1771 m; settings: read-out: concentrations minimales inhibitrices (C. M. I.)
Description: as §1, §2

[6] = COLIDC2, 24 H incubation at 37°C
[7] = COLIDC2, 48 H incubation at 37°C
[8] = COLIDC0, 24 H incubation at 37°C
[9] = COLIDC0, 48 H incubation at 37°C
[10] = COLI1894, 24 H incubation at 37°C
[11] = COLI1894, 48 H incubation at 37°C
[12] = COLI078, 24 H incubation at 37°C
[13] = COLI078, 48 H incubation at 37°C

Row | SMILES | MIC (Providencia DU 48; DU48, 24 H incubation at 37°C) [µg/mL] | MIC (Providencia DU 48; DU48, 48 H incubation at 37°C) [µg/mL] | MIC (Escherichia Coli DC2; [6]) [µg/mL] | MIC (Escherichia Coli DC2; [7]) [µg/mL] | MIC (Escherichia Coli DC0; [8]) [µg/mL] | MIC (Escherichia Coli DC0; [9]) [µg/mL] | MIC (Proteus vulgaris A 232; A232, 24 H incubation at 37°C) [µg/mL] | MIC (Proteus vulgaris A 232; A232, 48 H incubation at 37°C) [µg/mL] | MIC (Escherichia Coli 1894; [10]) [µg/mL] | MIC (Escherichia Coli 1894; [11]) [µg/mL] | MIC (Escherichia Coli 1507 E; 24 H incubation at 37°C) [µg/mL] | MIC (Escherichia Coli 1507 E; 48 H incubation at 37°C) [µg/mL] | MIC (Serratia marcesceus 2532; 24 H incubation at 37°C) [µg/mL] | MIC (Serratia marcesceus 2532; 48 H incubation at 37°C) [µg/mL] | MIC (Escherichia Coli TEM; 24 h) [µg/mL] | MIC (Escherichia Coli TEM; 48 h) [µg/mL] | MIC ([1]; 24 H incubation at 37°C) [µg/mL] | MIC ([1]; 48 H incubation at 37°C) [µg/mL] | MIC (Escherichia Coli 078; [12]) [µg/mL] | MIC (Escherichia Coli 078; [13]) [µg/mL] | also measured
1 | C[C@@H]1[C@H](NC(=O)/C(=N\OC(F)F)c2csc(N)n2)C(=O)N1c1nn[nH]n1 (racemic) [Prod. ex. 4] | 2.5 (≈ 6.45 µM) | 2.5 (≈ 6.45 µM) | ≤ 0.04 | ≤ 0.04 | 1.2 (≈ 3.1 µM) | 1.2 (≈ 3.1 µM) | 0.3 (≈ 0.775 µM) | 0.3 (≈ 0.775 µM) | ≤ 0.04 | ≤ 0.04 | 0.15 (≈ 0.387 µM) | 0.15 (≈ 0.387 µM) | 20 (≈ 51.6 µM) | 20 (≈ 51.6 µM) | 0.6 (≈ 1.55 µM) | 1.2 (≈ 3.1 µM) | 1.2 (≈ 3.1 µM) | 1.2 (≈ 3.1 µM) | 0.3 (≈ 0.775 µM) | 0.3 (≈ 0.775 µM) | MIC (Proteus mirabilis A 235; A235, 24 H incubation at 37°C): 0.3 µg/mL (≈ 0.775 µM); MIC (Proteus mirabilis A 235; A235, 48 H incubation at 37°C): 0.3 µg/mL (≈ 0.775 µM); MIC ([2]; 24 H incubation at 37°C): 5 µg/mL (≈ 12.9 µM); MIC ([2]; 48 H incubation at 37°C): 5 µg/mL (≈ 12.9 µM); MIC ([3]; 24 H incubation at 37°C): 1.2 µg/mL (≈ 3.1 µM); MIC ([3]; 48 H incubation at 37°C): 1.2 µg/mL (≈ 3.1 µM); MIC ([4]; 24 H incubation at 37°C): 1.2 µg/mL (≈ 3.1 µM); MIC ([4]; 48 H incubation at 37°C): 1.2 µg/mL (≈ 3.1 µM)
2 | C[C@@H]1[C@H](NC(=O)/C(=N\OCC(=O)O)c2csc(N)n2)C(=O)N1c1nn[nH]n1 (racemic) [Prod. ex. 6, (3SR, 4RS) 3-//2-(2-aminothiazol-4-yl) 2/-(carboxyméthoxy) imino/acétyl/amino/ 4-méthyl 1-(1H-tétrazol-5-yl) 2-azétidinone isomère syn] | 0.6 (≈ 1.52 µM) | 0.6 (≈ 1.52 µM) | 0.3 (≈ 0.759 µM) | 0.3 (≈ 0.759 µM) | 0.6 (≈ 1.52 µM) | 0.6 (≈ 1.52 µM) | 0.08 (≈ 0.202 µM) | 0.15 (≈ 0.379 µM) | 0.6 (≈ 1.52 µM) | 0.6 (≈ 1.52 µM) | 0.6 (≈ 1.52 µM) | 0.6 (≈ 1.52 µM) | 2.5 (≈ 6.32 µM) | 5 (≈ 12.6 µM) | 0.6 (≈ 1.52 µM) | 0.6 (≈ 1.52 µM) | 0.6 (≈ 1.52 µM) | 0.6 (≈ 1.52 µM) | 0.3 (≈ 0.759 µM) | 0.3 (≈ 0.759 µM) | MIC ([5]; 24 H incubation at 37°C): 2.5 µg/mL (≈ 6.32 µM); MIC ([5]; 48 H incubation at 37°C): 5 µg/mL (≈ 12.6 µM); MIC (Proteus mirabilis A 235; A235, 24 H incubation at 37°C): 0.15 µg/mL (≈ 0.379 µM); MIC (Proteus mirabilis A 235; A235, 48 H incubation at 37°C): 0.15 µg/mL (≈ 0.379 µM); MIC ([2]; 24 H incubation at 37°C): 2.5 µg/mL (≈ 6.32 µM); MIC ([2]; 48 H incubation at 37°C): 2.5 µg/mL (≈ 6.32 µM); MIC ([3]; 24 H incubation at 37°C): 0.3 µg/mL (≈ 0.759 µM); MIC ([3]; 48 H incubation at 37°C): 0.6 µg/mL (≈ 1.52 µM); MIC ([4]; 24 H incubation at 37°C): 0.6 µg/mL (≈ 1.52 µM); MIC ([4]; 48 H incubation at 37°C): 0.6 µg/mL (≈ 1.52 µM)
3 | CO/N=C(\C(=O)N[C@@H]1C(=O)N(c2nn[nH]n2)[C@@H]1CF)c1csc(N)n1 (racemic) [Prod. ex. 11, (3SR,4SR) 3-//2-(2-aminothiazol-4-yl) 2-méthoxyimino acétyl/ amino/ 4-(fluorométhyl) 1-(1-H-tétrazol-5-yl) 2-azétidinone] | 1.2 (≈ 3.25 µM) | 1.2 (≈ 3.25 µM) | 0.15 (≈ 0.406 µM) | 0.15 (≈ 0.406 µM) | 0.6 (≈ 1.62 µM) | 0.6 (≈ 1.62 µM) | 0.15 (≈ 0.406 µM) | 0.15 (≈ 0.406 µM) | ≤ 0.04 | ≤ 0.04 | 0.08 (≈ 0.217 µM) | 0.08 (≈ 0.217 µM) | 10 (≈ 27.1 µM) | 10 (≈ 27.1 µM) | 0.6 (≈ 1.62 µM) | 0.6 (≈ 1.62 µM) | 0.6 (≈ 1.62 µM) | 0.6 (≈ 1.62 µM) | 0.15 (≈ 0.406 µM) | 0.15 (≈ 0.406 µM) | MIC (Proteus mirabilis A 235; A235, 24 H incubation at 37°C): 0.15 µg/mL (≈ 0.406 µM); MIC (Proteus mirabilis A 235; A235, 48 H incubation at 37°C): 0.15 µg/mL (≈ 0.406 µM); MIC ([2]; 24 H incubation at 37°C): 1.2 µg/mL (≈ 3.25 µM); MIC ([2]; 48 H incubation at 37°C): 1.2 µg/mL (≈ 3.25 µM); MIC ([3]; 24 H incubation at 37°C): 0.3 µg/mL (≈ 0.812 µM); MIC ([3]; 48 H incubation at 37°C): 0.3 µg/mL (≈ 0.812 µM); MIC ([4]; 24 H incubation at 37°C): 0.3 µg/mL (≈ 0.812 µM); MIC ([4]; 48 H incubation at 37°C): 0.3 µg/mL (≈ 0.812 µM)
4 | CO/N=C(\C(=O)N[C@H]1CN(c2nn[nH]n2)C1=O)c1csc(N)n1 [Prod. ex.3, (3S) 3-//2-(2-aminothiazol-4-yl) 2-méthoxyimino acétyl /amino/ 1-(lH-tétrazol-5-yl) 2-azétidinone] | 0.3 (≈ 0.889 µM) | 0.6 (≈ 1.78 µM) | 0.6 (≈ 1.78 µM) | 0.6 (≈ 1.78 µM) | 0.6 (≈ 1.78 µM) | 1.2 (≈ 3.56 µM) | 0.3 (≈ 0.889 µM) | 0.3 (≈ 0.889 µM) | 0.15 (≈ 0.445 µM) | 0.15 (≈ 0.445 µM) | 0.6 (≈ 1.78 µM) | 0.6 (≈ 1.78 µM) | 2.5 (≈ 7.41 µM) | 5 (≈ 14.8 µM) | 10 (≈ 29.6 µM) | 10 (≈ 29.6 µM) | 0.3 (≈ 0.889 µM) | 0.3 (≈ 0.889 µM) | 0.3 (≈ 0.889 µM) | 0.3 (≈ 0.889 µM) | MIC ([5]; 24 H incubation at 37°C): 5 µg/mL (≈ 14.8 µM); MIC ([5]; 48 H incubation at 37°C): 10 µg/mL (≈ 29.6 µM); MIC (Proteus mirabilis A 235; A235, 24 H incubation at 37°C): 0.6 µg/mL (≈ 1.78 µM); MIC (Proteus mirabilis A 235; A235, 48 H incubation at 37°C): 0.6 µg/mL (≈ 1.78 µM); MIC ([2]; 24 H incubation at 37°C): 1.2 µg/mL (≈ 3.56 µM); MIC ([2]; 48 H incubation at 37°C): 1.2 µg/mL (≈ 3.56 µM); MIC ([3]; 24 H incubation at 37°C): 0.3 µg/mL (≈ 0.889 µM); MIC ([3]; 48 H incubation at 37°C): 0.3 µg/mL (≈ 0.889 µM); MIC ([4]; 24 H incubation at 37°C): 0.3 µg/mL (≈ 0.889 µM); MIC ([4]; 48 H incubation at 37°C): 0.3 µg/mL (≈ 0.889 µM)
